One assay has as its target T1, human P2X3 receptor (Homo sapiens, UniProt P56373).
T1 construct: expressed in transfected cells; host or cells: CHO-K1
T1 sequence (P56373 1-397): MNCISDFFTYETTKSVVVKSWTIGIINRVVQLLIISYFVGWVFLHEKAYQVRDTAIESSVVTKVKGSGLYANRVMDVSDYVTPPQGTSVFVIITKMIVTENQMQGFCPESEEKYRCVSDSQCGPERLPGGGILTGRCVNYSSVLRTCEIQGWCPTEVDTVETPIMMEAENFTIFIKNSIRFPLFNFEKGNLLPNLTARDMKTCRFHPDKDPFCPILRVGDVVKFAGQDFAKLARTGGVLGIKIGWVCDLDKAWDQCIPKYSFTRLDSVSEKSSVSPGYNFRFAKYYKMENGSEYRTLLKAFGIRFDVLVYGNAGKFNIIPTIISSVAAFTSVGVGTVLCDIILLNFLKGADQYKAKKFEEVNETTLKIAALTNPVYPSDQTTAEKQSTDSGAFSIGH
The experiment in a line: Calcium luminescence measurement: human P2X3 receptor activity inhibition (CHO-K1 cells, photoprotein readout, FLEXSTATION). Particulars: CHO-K1 cells co-expressing human P2X3 and Ca2+ sensitive photoprotein; agonist α,β-Met-ATP; read-out: h-P2X3 IC50. Type of assay: cell-based. The method, then:
Determination of human P2X3 receptor activity inhibition
The assay for the human purinergic P2RX3 receptor has been adapted to the internal screening instrumentation using the FLEXSTATION as reader and a photoprotein as luminescent readout. The assay consists of CHO-K1 cells recombinantly co-expressing the human P2rx3 receptor and a Ca^2+ sensitive photoprotein. Cells are maintained in DMEM F-12 (1:1) mixture (LONZA cat. n° BE04-687F/U1) supplemented with 9 mL of 100 mM Sodium Pyruvate (LONZA cat. n° BE13-115E), 29 mL of 7.5% Sodium Bicarbonate (LONZA cat. n° BE17-613E), 5.5 mL of 1 M Hepes (LONZA cat. n° BE17-737E), 5 mL of 100X Penicillin/Streptomycin mixture (LONZA cat. n° DE17-602E) and 50 mL of Fetal Bovine Serum (Sigma cat. n° F7524), 1 mg/mL G418 disulfate salt (Sigma cat. n° G8168) and 5 µg/ml Puromycin dihydrochloride (Sigma cat. n° P9620). Standard propagation conditions consist of seeding in a P75 flask twice a week, recovering about 20×10^6 cells, corresponding to about 80% confluency. Cells were seeded into black-walled clear bottom 96 well plates at a density of 40000 cells/well in a complete medium. After 24 h the culture medium was replaced with 200 µL/well of coelenterazine in Tyrode's buffer (Standard Tyrode's buffer: in house solution, 130 mM NaCl, 5 mM KCl, 2 mM CaCl2, 5 mM NaHCO3, 1 mM MgCl2, 20 mM HEPES, pH 7.4). Coelenterazine was purchased from BIOSYNTH (cat. n° C-7001). 10 mM stock solution was prepared in DMSO and glutathione and stored at -20° C. The plates were incubated for 4 hours at 37°C, and injected with 10 µL/well of test compounds at 25X concentration in Tyrode's buffer. After 4 minutes a second injection of 50 µL/well of 5X α,β-Met-ATP in Tyrode's buffer (α,β-Met-ATP: from Tocris (cat. n° 3209), was dissolved at 100 mM in water and stored in aliquots at -20°C) was performed and the signal of the emitted luminescence was recorded by FLEXSTATION III (Molecular Devices). […]
The inhibition curves of the tested compounds at cloned P2X3 receptor were determined by nonlinear regression analysis using software Prism 5.0 (Graphpad, San Diego, CA). The IC50 values and pseudo-Hill slope coefficients were estimated by the program.

Another assay has as its target T2, human P2X2/3 receptor (Homo sapiens, UniProt P56373+Q9UBL9).
T2 construct: expressed in transfected cells; host or cells: CHO-K1
T2 sequence (P56373 1-397): T1 sequence (P56373 1-397)
T2 sequence (Q9UBL9 1-471): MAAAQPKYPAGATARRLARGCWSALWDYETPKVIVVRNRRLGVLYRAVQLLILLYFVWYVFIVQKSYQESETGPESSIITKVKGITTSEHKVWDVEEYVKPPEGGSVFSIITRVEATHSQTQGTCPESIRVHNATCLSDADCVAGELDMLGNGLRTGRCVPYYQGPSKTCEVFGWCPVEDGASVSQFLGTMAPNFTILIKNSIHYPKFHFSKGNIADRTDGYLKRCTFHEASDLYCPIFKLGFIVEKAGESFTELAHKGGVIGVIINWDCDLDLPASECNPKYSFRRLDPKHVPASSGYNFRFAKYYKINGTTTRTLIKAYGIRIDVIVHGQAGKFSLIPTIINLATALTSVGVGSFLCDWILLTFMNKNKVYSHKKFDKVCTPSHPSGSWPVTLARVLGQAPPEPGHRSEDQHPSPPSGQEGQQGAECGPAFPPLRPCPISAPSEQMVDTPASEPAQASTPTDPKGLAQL
The experiment in a line: Calcium fluorescence measurement: human P2X2/3 receptor activity inhibition (CHO-K1 cells, Fluo-8 NoWash, […]). Type of assay: cell-based. Particulars: for IC50: CHO-K1 cells expressing human P2RX2/X3 channel, 10µM α,β-Met-ATP, read-out: h-P2X2/3 IC50; for Selectivity: ratio of IC50 of P2X2/3/ P2X3 receptors. The method, then: Determination of human P2X2/3 receptor activity inhibition
The assay for the human P2RX2/X3 has been evaluated by the screening instrumentation using the […] as reader and the FLUO8-NoWash dye as fluorescent readout for calcium detection.
CHO-K1 cells recombinantly expressing the human P2RX2/X3 channel are maintained in DMEM F-12 (1:1) mixture (LONZA cat. n°: BE04-687F/U1) supplemented with 5 mL of 100 mM Sodium Pyruvate (LONZA cat. n° BE13-115E), 25 mL of 7.5% Sodium Bicarbonate (LONZA cat. n° BE17-613E), 6.5 mL of 1M Hepes (LONZA cat. n° BE17-737E), 5 mL of 100X Penicillin/Streptomycin mixture (LONZA cat. n° DE17-602E) and 50 mL of Fetal Bovine Serum (Sigma cat. n° F7524), 5 µg/mL Puromycin dihydrochloride (Sigma cat. n° P9620) and 1 mg/ml G418 disulfate salt (Sigma cat. n° G8168).
Cells were seeded into black-walled clear bottom 384 Multiwell plates at a density of 10.000 cells/well in complete medium. After 24 h the culture medium was replaced with 20 µL/well of Fluo-8 NoWash calcium sensitive dye (AAT Bioquest cat. n° 36316) diluted in Tyrode's buffer (Standard Tyrode's buffer: in house solution, 130 mM NaCl, 5 mM KCl, 2 mM CaCl2, 5 mM NaHCO3, 1 mM MgCl2, 20 mM HEPES, pH 7.4).
The plates were incubated for 1 hours at 37°C and injected with 10 µL/well of test compounds at 3X concentration in Tyrode's buffer with the […]. After 5 minutes a second injection of 15 µL/well of 10µM α,β-Met-ATP in Tyrode's buffer (α,β-Met-ATP: from Tocris cat. n° 3209) was performed and the signal of the emitted fluorescence was recorded by […] (Molecular Devices).
The selectivity is expressed as the ratio of IC50 of P2X2/3/ P2X3 receptors. Table 8: Human P2X3 and h-P2X2/3 receptor antagonist activity for selected compounds of the invention.

In the case of `COC(C)(C)c1nnc2c3ncc(N4CCOCC4)cc3n(Cc3ccc(Cl)cc3)c(=O)n12` [Example 32, 6-(4-Chlorobenzyl)-3-(2-methoxypropan-2-yl)-8-(morpholin-4-yl)pyrido[2,3-e][1,2,4]triazolo[4,3-c]pyrimidin-5(6H)-one], the IC50 at human P2X3 receptor was 21 nM; on human P2X2/3 receptor, above 30000 nM. For the same compound, the Selectivity at human P2X2/3 receptor is reported as above 1000.
Turning to `CC(C)(C)c1nnc2c3ncc(N4CCOCC4)cc3n(Cc3ccc(Br)cc3)c(=O)n12` [Example 31, 6-[(4-Bromophenyl)methyl] -3-tert-butyl-8-(morpholin-4-yl)pyrido[2,3-e][1,2,4]triazolo[4,3-c]pyrimidin-5(6H)-one], the IC50 at human P2X3 receptor turned out to be 7.2 nM. In addition, at human P2X2/3 receptor, the IC50 stood at 8150 nM and the Selectivity is above 1000.
For `CC(C)(C)c1nnc2c3nnc(N4CCC(O)CC4)cc3n(Cc3ccc(Cl)cc3)c(=O)n12` [Example 55, 3-tert-Butyl-6-[(4-chlorophenyl)methyl]-8-(4-hydroxypiperidin-1-yl)[1,2,4]triazolo[4',3': 1,6]pyrimido[5,4-c]pyridazin-5(6H)-one], in that order: 25 nM, above 30000 nM and above 1200.
With `COC(C)(C)C1CN2C(=O)N(Cc3ccc(Cl)cc3)c3cc(N4CCOCC4)nnc3C2=N1` (stereo not drawn) [Example 18, 5-[(4-Chlorophenyl)methyl]-9-(2-methoxypropan-2-yl)-3-(morpholin-4-yl)-8,9-dihydroimidazo[1',2':1,6]pyrimido[5,4-c]pyridazin-6(5H)-one], on human P2X3 receptor, the IC50 was 46.4 nM. At human P2X2/3 receptor, the IC50 was above 30000 nM and the Selectivity is recorded as above 646.
Regarding `CC(C)(O)C1CN2C(=O)N(Cc3ccc(Cl)cc3)c3cc(N4CCOCC4)nnc3C2=N1` (stereo not drawn) [Example 19, 5-[(4-Chlorophenyl)methyl]-9-(2-hydroxypropan-2-yl)-3-(morpholin-4-yl)-8,9-dihydroimidazo[1',2':1,6]pyrimido[5,4-c]pyridazin-6(5H)-one], the IC50 on human P2X3 receptor worked out at 31.2 nM. For the same compound, at human P2X2/3 receptor, the IC50 was above 30000 nM and the Selectivity is reported as above 961.
Take `COC(C)(C)C1CN2C(=O)N(Cc3ccc(Cl)cc3)c3cc(N4CCOCC4)cnc3C2=N1` (stereo not drawn) [Example 5, 6-(4-Chlorobenzyl)-2-(2-methoxypropan-2-yl)-8-(morpholin-4-yl)-2,6-dihydroimidazo[1,2-c]pyrido[2,3-e]pyrimidin-5(3H)-one]: on human P2X3 receptor, the IC50 amounted to 111 nM. In addition, at human P2X2/3 receptor, the IC50 was 19000 nM and the Selectivity came to 170.
As to `CC(C)(C)C1C(=O)N=C2c3ncc(N4CCOCC4)cc3N(Cc3ccc(Cl)cc3)C(=O)N21` (stereo not drawn) [Example 21], the IC50 on human P2X3 receptor came out at 67 nM. On human P2X2/3 receptor, the IC50 was 3430 nM and the Selectivity is 51.
In the case of `COc1ccc(Cn2c(=O)n3c(C(C)(C)C)nnc3c3ncc(N4CCN(C(C)=O)CC4)cc32)cc1` [Example 36, 8-(4-Acetylpiperazin-1-yl)-3-tert-butyl-6-[(4-methoxyphenyl)methyl]pyrido[2,3-e][1,2,4]triazolo[4,3-c]pyrimidin-5(6H)-one], the IC50 is 136 nM at human P2X3 receptor and above 30000 nM on human P2X2/3 receptor. Besides, the Selectivity at human P2X2/3 receptor is reported as above 119.
With `COC(C)(C)c1nnc2c3nnc(N4CCOCC4)cc3n(Cc3ccc(Cl)cc3)c(=O)n12` [Example 48, 6-[(4-Chlorophenyl)methyl]-3-(2-methoxypropan-2-yl)-8-(morpholin-4-yl)[1,2,4]triazolo[4',3': 1,6]pyrimido[5,4-c]pyridazin-5(6H)-one], the IC50 on human P2X3 receptor came to 24.9 nM. In addition, on human P2X2/3 receptor, the IC50 is above 30000 nM and the Selectivity was above 1000.
For `CN(C)c1nnc2c3nnc(N4CCOCC4)cc3n(Cc3ccc(Cl)cc3)c(=O)n12` [Example 50, 6-[(4-Chlorophenyl)methyl] -3 - (dimethylamino)-8-(morpholin-4-yl)[1,2,4]triazolo[4',3': 1,6]pyrimido[5,4-c]pyridazin-5(6H)-one], in that order: 98.6 nM, above 30000 nM and above 304.
Taken in the same sequence, the figures for `CC(C)C1CN2C(=O)N(Cc3ccc(Cl)cc3)c3cc(N4CCOCC4)cnc3C2=N1` (racemic) [Example 9, 6-[(4-Chlorophenyl)methyl]-8-(morpholin-4-yl)-2-(propan-2-yl)-2,6-dihydroimidazo[1,2-c]pyrido[2,3-e]pyrimidin-5(3H)-one] were 167 nM, 7410 nM and 44.
On to `COC(C)(C)c1nnc2c3nnc(N4CCN(C(=O)OC(C)(C)C)CC4)cc3n(Cc3ccc(Cl)cc3)c(=O)n12` [Example 45, tert-Butyl 4-{6-[(4-chlorophenyl)methyl]-3-(2-methoxypropan-2-yl)-5-oxo-5,6-dihydro[1,2,4]triazolo[4',3':1,6]pyrimido[5 ,4-c]pyridazin-8-yl}piperazine-1-carboxylate], for which the IC50 at human P2X3 receptor was determined as 2550 nM.
The same measure, in the same setting: the value for `COc1ccc(CN2C(=O)N3CC(C(C)C)N=C3c3ncc(N4CCOCC4)cc32)nc1` (stereo not drawn) [Example 14, 6-[(5-Methoxypyridin-2-yl)methyl]-8-(morpholin-4-yl)-2-(propan-2-yl)-2,6-dihydroimidazo[1,2-c]pyrido[2,3-e]pyrimidin-5(3H)-one] was 822 nM; that for `CC(C)C1CN=C2c3ncc(N4CCOCC4)cc3N(Cc3ccc(Cl)cc3)C(=O)N21` (stereo not drawn) [Example 1, 6-(4-Chlorobenzyl)-8-(morpholin-4-yl)-3-(propan-2-yl)-2,6-dihydroimidazo[1,2-c]pyrido[2,3-e]pyrimidin-5(3H)-one] was 703 nM.

The values are drawn from patent publication EP4389746A2, “P2X3 RECEPTOR ANTAGONISTS” (Recordati Industria Chimica E Farmaceutica SPA, priority 2022, dated 2024).
